Measurements published in patent US20070249725A1, “Pharmaceutical formulations of sympathetic antagonist for the treatment of chronic muscle pain” (priority 2006, published 2007).
Counter-ions that a name gives are not always drawn.

Test: Adverse events in subjects treated by trigger point injection (Example 1)
Type: in vivo, human
Method: A total of 326 male and female subjects, approximately 15 to 85 years old with pain of 4-72 month duration were treated with various doses of phenoxybenzamine. If a potential subject had pain that was clearly muscular and clearly not due to arthritis, nerve root compression or other extramuscular cause, the subject was considered a candidate for phenoxybenzamine hydrochloride injection. Trigger points were identified by palpation. A monopolar EMG needle was then inserted into the trigger point. Another monopolar EMG needle was inserted into a nearby nontender fibers of the same muscle. […] The treatment was repeated in up to 10-12 trigger points per treatment session. Subjects could return for up to 6 treatment sessions, depending on the extent of their pain. The initial treatment was with a dose of 25 mg of phenoxybenzamine hydrochloride in an injection volume of 2 ml. […] For 318 subjects, data were available for analysis for the doses of phenoxybenzamine hydrochloride used, efficacy and incidence of serious adverse events.
The frequencies of other adverse events occurring in the first 199 subjects treated, including the first 87 subjects treated with the 3 mg dose, are given in the table below. Results with an additional 131 subjects treated with the 3 mg dose have been similar.

[1] = 3 mg, multiple injections, N 87
[2] = 10-12.5 mg, multiple injections, N 89
[3] = 10-25 mg, single injection, N 23

Q: Which results are given for `CC(COc1ccccc1)N(CCCl)Cc1ccccc1` (stereo not shown) [Phenoxybenzamine Hydrochloride, phenoxybenzamine hydrochloride]?
A: frequencies of adverse events in additional 131 subjects compared with Table 3 (3 mg dose): similar; Bruising at injection site, % of subjects [1]: (1%); Bruising at injection site, number of subjects [1]: 1; Burning, % of subjects [1]: (0%); Cold sensation, % of subjects [1]: (0%); Diaphoresis, % of subjects [1]: (0%); Diarrhea, % of subjects [1]: (0%); Dizziness, % of subjects [1]: (3%); Dizziness, number of subjects [1]: 3; Dry mouth, % of subjects [1]: (0%); Dysphagia, % of subjects [1]: (0%); Dyspnea, % of subjects [1]: (1%); Dyspnea, number of subjects [1]: 1; Epistaxis, % of subjects [1]: (0%); Fatigue, % of subjects [1]: (3%); Fatigue, number of subjects [1]: 3; Fever, % of subjects [1]: (0%); Flu syndrome, % of subjects [1]: (1%); Flu syndrome, number of subjects [1]: 1; Hair disorder, % of subjects [1]: (1%); Hair disorder, number of subjects [1]: 1; Headache, % of subjects [1]: (3%); Headache, number of subjects [1]: 3; Hypesthesia, % of subjects [1]: (0%); Injection site drainage, % of subjects [1]: (0%); Injection site soreness, % of subjects [1]: (21%); Injection site soreness, number of subjects [1]: 18; Injection site swelling, % of subjects [1]: 23%; Injection site swelling, number of subjects [1]: 20; Lethargy, % of subjects [1]: (1%); Lethargy, number of subjects [1]: 1; Lightheadedness, % of subjects [1]: (0%); Nasal disorder, % of subjects [1]: (0%); Nausea, % of subjects [1]: (2%); Nausea, number of subjects [1]: 2; Pain, % of subjects [1]: (5%); Pain, number of subjects [1]: 4; Palpitations, % of subjects [1]: (0%); Paresthesia, % of subjects [1]: (0%); Pharyngitis, % of subjects [1]: (0%); Pruritis, % of subjects [1]: (0%); Rash, % of subjects [1]: 0%; Stiffness, % of subjects [1]: (1%); Stiffness, number of subjects [1]: 1; Swelling, % of subjects [1]: (0%); Syncope, % of subjects [1]: (0%); Tachycardia, % of subjects [1]: (0%); Taste disorder, % of subjects [1]: (1%); Taste disorder, number of subjects [1]: 1; Tremor, % of subjects [1]: (1%); Tremor, number of subjects [1]: 1; Vomiting, % of subjects [1]: (0%); Bruising at injection site, % of subjects [2]: (11%); Bruising at injection site, number of subjects [2]: 10; Burning, % of subjects [2]: (3%); Burning, number of subjects [2]: 3; Cold sensation, % of subjects [2]: (1%); Cold sensation, number of subjects [2]: 1; Diaphoresis, % of subjects [2]: (1%); Diaphoresis, number of subjects [2]: 1; Diarrhea, % of subjects [2]: (2%); Diarrhea, number of subjects [2]: 2; Dizziness, % of subjects [2]: (20%); Dizziness, number of subjects [2]: 18; Dry mouth, % of subjects [2]: (1%); Dry mouth, number of subjects [2]: 1; Dysphagia, % of subjects [2]: (0%); Dyspnea, % of subjects [2]: (3%); Dyspnea, number of subjects [2]: 3; Epistaxis, % of subjects [2]: (0%); Fatigue, % of subjects [2]: (4%); Fatigue, number of subjects [2]: 4; Fever, % of subjects [2]: (1%); Fever, number of subjects [2]: 1; Flu syndrome, % of subjects [2]: (1%); Flu syndrome, number of subjects [2]: 1; Hair disorder, % of subjects [2]: (0%); Headache, % of subjects [2]: (10%); Headache, number of subjects [2]: 9; Hypesthesia, % of subjects [2]: (4%); Hypesthesia, number of subjects [2]: 4; Injection site drainage, % of subjects [2]: (2%); Injection site drainage, number of subjects [2]: 2; Injection site soreness, % of subjects [2]: (37%); Injection site soreness, number of subjects [2]: 33; Injection site swelling, % of subjects [2]: 45%; Injection site swelling, number of subjects [2]: 40; Lethargy, % of subjects [2]: (0%); Lightheadedness, % of subjects [2]: (13%); Lightheadedness, number of subjects [2]: 12; Nasal disorder, % of subjects [2]: (2%); Nasal disorder, number of subjects [2]: 2; Nausea, % of subjects [2]: (18%); Nausea, number of subjects [2]: 16; Pain, % of subjects [2]: (0%); Palpitations, % of subjects [2]: (1%); Palpitations, number of subjects [2]: 1; Paresthesia, % of subjects [2]: (3%); Paresthesia, number of subjects [2]: 3; Pharyngitis, % of subjects [2]: (1%); Pharyngitis, number of subjects [2]: 1; Pruritis, % of subjects [2]: (1%); Pruritis, number of subjects [2]: 1; Rash, % of subjects [2]: 2%; Rash, number of subjects [2]: 2; Stiffness, % of subjects [2]: (2%); Stiffness, number of subjects [2]: 2; Swelling, % of subjects [2]: (2%); Swelling, number of subjects [2]: 2; Syncope, % of subjects [2]: (7%); Syncope, number of subjects [2]: 6; Tachycardia, % of subjects [2]: (0%); Taste disorder, % of subjects [2]: (2%); Taste disorder, number of subjects [2]: 2; Tremor, % of subjects [2]: (1%); Tremor, number of subjects [2]: 1; Vomiting, % of subjects [2]: (8%); Vomiting, number of subjects [2]: 7; Bruising at injection site, % of subjects [3]: (0%); Burning, % of subjects [3]: (4%); Burning, number of subjects [3]: 1; Cold sensation, % of subjects [3]: (4%); Cold sensation, number of subjects [3]: 1; Diaphoresis, % of subjects [3]: (0%); Diarrhea, % of subjects [3]: (0%); Dizziness, % of subjects [3]: (0%); Dry mouth, % of subjects [3]: (0%); Dysphagia, % of subjects [3]: (4%); Dysphagia, number of subjects [3]: 1; Dyspnea, % of subjects [3]: (0%); Epistaxis, % of subjects [3]: (4%); Epistaxis, number of subjects [3]: 1; Fatigue, % of subjects [3]: (4%); Fatigue, number of subjects [3]: 1; Fever, % of subjects [3]: (0%); Flu syndrome, % of subjects [3]: (0%); Hair disorder, % of subjects [3]: (0%); Headache, % of subjects [3]: (0%); Hypesthesia, % of subjects [3]: (9%); Hypesthesia, number of subjects [3]: 2; Injection site drainage, % of subjects [3]: (0%); Injection site soreness, % of subjects [3]: (35%); Injection site soreness, number of subjects [3]: 8; Injection site swelling, % of subjects [3]: 26%; Injection site swelling, number of subjects [3]: 6; Lethargy, % of subjects [3]: (0%); Lightheadedness, % of subjects [3]: (4%); Lightheadedness, number of subjects [3]: 1; Nasal disorder, % of subjects [3]: (9%); Nasal disorder, number of subjects [3]: 2; Nausea, % of subjects [3]: (0%); Pain, % of subjects [3]: (26%); Pain, number of subjects [3]: 6; Palpitations, % of subjects [3]: (0%); Paresthesia, % of subjects [3]: (0%); Pharyngitis, % of subjects [3]: (0%); Pruritis, % of subjects [3]: (0%); Rash, % of subjects [3]: 4%; Rash, number of subjects [3]: 1; Stiffness, % of subjects [3]: (13%); Stiffness, number of subjects [3]: 3; Swelling, % of subjects [3]: (0%); Syncope, % of subjects [3]: (0%); Tachycardia, % of subjects [3]: (4%); Tachycardia, number of subjects [3]: 1; Taste disorder, % of subjects [3]: (4%); Taste disorder, number of subjects [3]: 1; Tremor, % of subjects [3]: (0%); Vomiting, % of subjects [3]: (0%); Bruising at injection site, % of subjects (Total of all doses, N 199): (6%); Bruising at injection site, number of subjects (Total of all doses, N 199): 11; Burning, % of subjects (Total of all doses, N 199): (2%); Burning, number of subjects (Total of all doses, N 199): 4; Cold sensation, % of subjects (Total of all doses, N 199): (1%); Cold sensation, number of subjects (Total of all doses, N 199): 2; Diaphoresis, % of subjects (Total of all doses, N 199): (0%); Diaphoresis, number of subjects (Total of all doses, N 199): 1; Diarrhea, % of subjects (Total of all doses, N 199): (1%); Diarrhea, number of subjects (Total of all doses, N 199): 2; Dizziness, % of subjects (Total of all doses, N 199): (11%); Dizziness, number of subjects (Total of all doses, N 199): 21; Dry mouth, % of subjects (Total of all doses, N 199): (0%); Dry mouth, number of subjects (Total of all doses, N 199): 1; Dysphagia, % of subjects (Total of all doses, N 199): (0%); Dysphagia, number of subjects (Total of all doses, N 199): 1; Dyspnea, % of subjects (Total of all doses, N 199): (2%); Dyspnea, number of subjects (Total of all doses, N 199): 4; Epistaxis, % of subjects (Total of all doses, N 199): (0%); Epistaxis, number of subjects (Total of all doses, N 199): 1; Fatigue, % of subjects (Total of all doses, N 199): (4%); Fatigue, number of subjects (Total of all doses, N 199): 8; Fever, % of subjects (Total of all doses, N 199): (0%); Fever, number of subjects (Total of all doses, N 199): 1; Flu syndrome, % of subjects (Total of all doses, N 199): (1%); Flu syndrome, number of subjects (Total of all doses, N 199): 2; Hair disorder, % of subjects (Total of all doses, N 199): (0%); Hair disorder, number of subjects (Total of all doses, N 199): 1; Headache, % of subjects (Total of all doses, N 199): (6%); Headache, number of subjects (Total of all doses, N 199): 12; Hypesthesia, % of subjects (Total of all doses, N 199): (3%); Hypesthesia, number of subjects (Total of all doses, N 199): 6; Injection site drainage, % of subjects (Total of all doses, N 199): (1%); Injection site drainage, number of subjects (Total of all doses, N 199): 2; Injection site soreness, % of subjects (Total of all doses, N 199): (30%); Injection site soreness, number of subjects (Total of all doses, N 199): 59; Injection site swelling, % of subjects (Total of all doses, N 199): 33%; Injection site swelling, number of subjects (Total of all doses, N 199): 66; Lethargy, % of subjects (Total of all doses, N 199): (0%); Lethargy, number of subjects (Total of all doses, N 199): 1; Lightheadedness, % of subjects (Total of all doses, N 199): (7%); Lightheadedness, number of subjects (Total of all doses, N 199): 13; Nasal disorder, % of subjects (Total of all doses, N 199): (2%); Nasal disorder, number of subjects (Total of all doses, N 199): 4; Nausea, % of subjects (Total of all doses, N 199): (9%); Nausea, number of subjects (Total of all doses, N 199): 18; Pain, % of subjects (Total of all doses, N 199): (5%); Pain, number of subjects (Total of all doses, N 199): 10; Palpitations, % of subjects (Total of all doses, N 199): (0%); Palpitations, number of subjects (Total of all doses, N 199): 1; Paresthesia, % of subjects (Total of all doses, N 199): (2%); Paresthesia, number of subjects (Total of all doses, N 199): 3; Pharyngitis, % of subjects (Total of all doses, N 199): (0%); Pharyngitis, number of subjects (Total of all doses, N 199): 1; Pruritis, % of subjects (Total of all doses, N 199): (0%); Pruritis, number of subjects (Total of all doses, N 199): 1; Rash, % of subjects (Total of all doses, N 199): 2%; Rash, number of subjects (Total of all doses, N 199): 3; Stiffness, % of subjects (Total of all doses, N 199): (3%); Stiffness, number of subjects (Total of all doses, N 199): 6; Swelling, % of subjects (Total of all doses, N 199): (1%); Swelling, number of subjects (Total of all doses, N 199): 2; Syncope, % of subjects (Total of all doses, N 199): (3%); Syncope, number of subjects (Total of all doses, N 199): 6; Tachycardia, % of subjects (Total of all doses, N 199): (0%); Tachycardia, number of subjects (Total of all doses, N 199): 1; Taste disorder, % of subjects (Total of all doses, N 199): (2%); Taste disorder, number of subjects (Total of all doses, N 199): 4; Tremor, % of subjects (Total of all doses, N 199): (1%); Tremor, number of subjects (Total of all doses, N 199): 2; Vomiting, % of subjects (Total of all doses, N 199): (4%); Vomiting, number of subjects (Total of all doses, N 199): 7
